Marks after values point to notes of the source that are not given here.
Assays:
[1] = system: croton oil induced ear edema; test: Croton oil ear edema; type: in vivo, Mice (male, CD-1); conditions: inhibition at 1.6 μg, applied to ear, mice
Procedure: Mice (male, CD-1) were made into different groups. Test compounds were dissolved in pyridine-water-acetone (4:2:14) solution […] of compound or vehicle solution was applied to the left ear of the mice. The right ear of each mouse was applied simultaneously with 10 μl of pyridine:water:acetone (4:2:14) solution. After 2 hrs of compound or vehicle application, 10 μl of croton oil solution was applied to the left ear of all animals. After 6 hr of croton oil treatment the animals were sacrificed; ears were excised and weighed separately.

[2] = system: cotton pellet induced granuloma; test: Cotton pellet granuloma (compound impregnated in pellet); type: in vivo; conditions: dose 1000 mcg per pellet, SD rats
Procedure: SD rats were used for assessing anti-inflammatory activity of test compound using cotton pellet granuloma method. Sterilized cotton pellets weighing 20 mg were prepared. Test compounds were dissolved in acetone so as to get the required quantity for each cotton pellet in 500 μl. Different pellets were impregnated with 500 μl of acetone to contain required quantity of test compounds and allowed to dry. Vehicle control pellets were impregnated with 500 μl acetone. Rats were made into different groups. Two cotton pellets were surgically implanted into the scapular region of each rat. On sixth day of such implantation, pellets along with granuloma were taken out. Thymus gland was also separated from each animal and weighed. The pellets with granuloma were dried for 20 hrs at 60° C. and weighed. Mean weights of dry granuloma and thymus, body weight gain/100 g body weights were calculated.

glucocorticoid receptors = molecular target: T1, glucocorticoid receptors (Homo sapiens, UniProt P04150); test: Glucocorticoid receptor binding assay ([3H]dexamethasone radioligand); conditions: HeLa cells transfected with glucocorticoid receptors; for inhibition at 0.1 µM: % inhibition at 100 nM
T1 construct: host or cells: Human HeLa cells
T1 sequence (P04150 1-777): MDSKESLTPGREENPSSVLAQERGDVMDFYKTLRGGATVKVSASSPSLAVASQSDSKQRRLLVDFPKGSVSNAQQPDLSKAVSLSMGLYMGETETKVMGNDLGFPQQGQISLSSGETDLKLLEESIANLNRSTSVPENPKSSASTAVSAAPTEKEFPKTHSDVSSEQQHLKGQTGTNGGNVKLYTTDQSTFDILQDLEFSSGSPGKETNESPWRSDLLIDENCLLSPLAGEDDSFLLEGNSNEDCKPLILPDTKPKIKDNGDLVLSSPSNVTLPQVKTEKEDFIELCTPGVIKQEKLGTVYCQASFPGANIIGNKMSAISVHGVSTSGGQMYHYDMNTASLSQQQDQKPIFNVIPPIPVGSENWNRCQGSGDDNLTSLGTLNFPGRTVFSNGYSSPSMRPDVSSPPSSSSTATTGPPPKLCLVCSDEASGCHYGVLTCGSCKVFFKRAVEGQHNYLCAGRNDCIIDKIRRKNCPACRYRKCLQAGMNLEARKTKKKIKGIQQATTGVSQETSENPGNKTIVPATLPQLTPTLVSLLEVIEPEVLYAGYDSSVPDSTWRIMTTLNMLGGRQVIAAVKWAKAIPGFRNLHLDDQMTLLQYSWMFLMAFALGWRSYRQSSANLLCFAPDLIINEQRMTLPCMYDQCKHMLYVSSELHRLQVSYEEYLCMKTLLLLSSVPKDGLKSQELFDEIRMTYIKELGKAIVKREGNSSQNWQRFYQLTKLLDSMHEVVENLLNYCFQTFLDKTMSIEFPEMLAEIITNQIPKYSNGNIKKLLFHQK
Procedure: The steroid receptor binding assay were performed by MDS Pharma Services at their Taipei (Taiwan) pharmacology laboratory.
The activity of test compounds on glucocorticoid receptor was assessed using radioligand binding assays. […] Free [^3H]dexamethasone was removed from the medium by centrifugation and concentration of receptor bound ligand was determined in the supernatant by liquid scintillation counting.
The % inhibition was evaluated using a single concentration of test compound and the corresponding radiolabeled ligand. Results are presented as the percent inhibition of specific binding. The values are average of duplicate determinations for each concentration.

[3] = system: liver glycogen deposition; type: in vivo, Male Sprague Dawley rats; conditions: 3 mg/kg intratracheally, 2 doses 24 hrs apart, adrenalectomized rats
Procedure: Male Sprague Dawley rats, weighing 190-220 g were bilaterally adrenalectomized and maintained on 0.9% saline solution throughout the experiment. On day 5th and 6th of adrenalectomy, animals were made into different groups, test compounds prepared in cold saline (sonicated for 30 min) were instilled intratracheally 2 doses@3 mg/kg, 24 hrs apart. At 15 hrs after the last treatment, animals were sacrificed and livers were excised and weighed. The glycogen content of the livers was determined by anthrone method. Briefly, a weighed quantity of liver tissue was homogenized with 5% trichloroacetic acid, supernatant mixed with ethanol and kept overnight for precipitation. The glycogen thus extracted was estimated as glucose generated after acid hydrolysis by addition of anthrone reagent at 620 nm. Glycogen content was expressed as mg/100 g liver.

[4] = system: cotton pellet granuloma (blank cotton pellet); test: Assessment of systemic activity by i.v. route (blank cotton pellet granuloma); type: in vivo; conditions: dose 1600 mcg (for 3 days), male SD rats
Procedure: For assessing systemic side effect on i.v. administration, cotton pellet granuloma assay (blank cotton pellet) in male SD rats was undertaken. Sterilized cotton pellets weighing 20 mg were surgically implanted into the scapular region on both sides. Starting from next day of implantation, compounds dissolved in Pharmasove (Pharmasolve 66.67% in saline) or vehicle were administered intravenously at 1.6 mg/kg dose for 3 successive days. On fifth day of implantation, pellets along with granuloma were taken out. The thymus gland was also separated from each animal and weighed. The pellets with granuloma were dried for 20 hrs at 60° C. and weighed. Mean weights of dry granuloma and thymus and body weight gain/100 g body weights were compared with vehicle control groups.

[5] = system: Sephadex induced lung edema; test: animal or person
Procedure: (§1) Sephadex G-200 was prepared in sterile saline (10 mg/ml) and allowed to swell for at least 3 days at room temperature. Test compounds were prepared as suspensions by grinding and sonicating the solid in chilled saline. All the compounds were administered intratracheally at 24 hrs and 2 hrs prior to intratracheal administration of Sephadex (5 mg/kg) under light ether anesthesia. Vehicle control animals were administered vehicle instead of Sephadex. At 24 hr after Sephadex instillation, lung and thymus were excised from individual animals and weighed. Wet weight of lung and thymus was corrected for 100 g of initial body weight. The percentage increase in lung weight caused by Sephadex and its inhibitions by the compounds, were calculated. The percentage inhibitions of thymus compared to vehicle control group were also calculated.

in vivo = conditions: SD, rat, thymus, other: intratracheal
Procedure: as §1

[6] = dose 3000 mcg/kg intratracheally, SD rat

C[C@@H]1C[C@H]2[C@@H]3CCC4=CC(=O)C=C[C@]4(C)[C@@]3(F)[C@@H](O)C[C@]2(C)[C@@]1(O)C(=O)CO [Dexamethasone, 16α-methyl-9α-fluoro-1,4-pregnadiene-11β,17α,21-triol-3,20-dione, reference compound]
Mean % Inhibition (croton oil ear edema) [1]: 50.05^a % | Mean % Inhibition of Granuloma [2]: 44.73% | Thymus wt. (% Decrease) [2]: 68.66%

CCC(=O)O[C@]1(C(=O)SOCF)[C@H](C)CC2C3C[C@H](F)C4=CC(=O)C=C[C@]4(C)[C@@]3(F)[C@@H](O)C[C@@]21C (stereo partly drawn) [IC.3, 6α,9α-Difluoro-11β-hydroxy-16α-methyl-3-oxo-17α-propionyloxyandrosta-1,4-diene-17β-carbonylsulfenic acid fluoromethyl ester]
inhibition at 0.1 µM (glucocorticoid receptors): 72% | Glycogen content [3]: −11.34 mg/100 g liver | Mean Inhibition of Granuloma (%) [4]: 12.09%

CCCC1O[C@@H]2C[C@H]3[C@@H]4CCC5=CC(=O)C=C[C@]5(C)[C@H]4[C@@H](O)C[C@]3(C)[C@]2(C(=O)CO)O1 (stereo partly drawn) [Budesonide, (11β,16α)-16,17-[Butylidenebis(oxy)]-11,21-dihydroxypregna-1,4-diene-3,20-dione]
ED50 ([5]; Rattus norvegicus, inhaled or nasal, read-out: ED50 Lung edema): 0.101 mg/kg | Mean % inhibition Lung edema [5, 6]: 119.38% | Mean % inhibition Thymus [5, 6]: 67.08% | ED50 at 24 h (in vivo): 0.68 mg/kg | inhibition at 0.01 µM (glucocorticoid receptors; % inhibition at 10 nM): 85% | % Inhibition of thymus [3]: 65.02% | Glycogen content [3]: 552.77 mg/100 g liver

C[C@@H]1CC2C3C[C@H](F)C4=CC(=O)C=C[C@]4(C)[C@@]3(F)[C@@H](O)C[C@]2(C)[C@@]1(OC(=O)c1ccco1)C(=O)SOCc1ccc(F)cc1 (stereo partly drawn) [IC.5, 6α,9α-Difluoro-17α-[(2-furanylcarbonyl)oxy]-11β-hydroxy-16α-methyl-3-oxoandrosta-1,4-diene-17β-carbonylsulfenic acid (4-fluorophenyl)methyl ester]
inhibition at 0.1 µM (glucocorticoid receptors): 75% | Mean Inhibition of Granuloma (%) [4]: −22.20%

CCC(=O)O[C@]1(C(=O)SCF)[C@H](C)C[C@H]2[C@@H]3C[C@H](F)C4=CC(=O)C=C[C@]4(C)[C@@]3(F)[C@@H](O)C[C@@]21C [Fluticasone propionate, (S)-fluoromethyl 6α,9α-difluoro-11β-hydroxy-16α-methyl-17α-propionyloxy-3-oxoandrosta-1,4-diene-17β-carbothioate, reference compound]
ED50 Lung edema ([5]; i.t., Sephadex lung edema model in SD rat): 0.086 mg/kg | ED50 Thymus ([5]; i.t., thymus involution, Sephadex lung edema model in SD rat): 0.36 mg/kg | % Inhibition of thymus [3]: 70.17% | Glycogen content [3]: 1514.65 mg/100 g liver | Mean % Inhibition (croton oil ear edema) [1]: 81.09^a % | Mean Inhibition of Granuloma (%) [4]: 55.62% | Mean Thymus wt. Decrease (%) [4]: 75.71% | Mean % Inhibition of Granuloma [2]: 75.03% | Thymus wt. (% Decrease) [2]: 82.36%
